Experimental data from patent US9695217B2, “Peptide domains that bind small molecules” (Iowa State University Research Foundation, Inc., priority 2010, dated 2017).
Where two headings read alike, the source gives them in different places.

Columns and labels:
[1] = known polyhistidine binding domain, background statement; read-out: molar dissociation constant for nickel; cited from earlier work
[2] = Binding strength measured by surface plasmon resonance (BIACOR 3000, Sensor Chip NTA); details: read-out: Kd (dissociation constant for nickel), SPR

YSHHHHHHLAGTA [C26]
Kd [1]: 0.023 nM | Kd [2]: ~0.023 nM
